Measurements as given in patent US6242445A, “Benzimidazole derivative” (Kureha Chemical Industry Co., Ltd., priority 1998, dated 2001).
Where two headings read alike, the source gives them in different places.

What was measured:
[1] = test system: kidney disease model rats; test: Action to lower blood pressure in kidney disease model rats; format: in vivo, Sprague-Dawley female rats; details: 20 mg/kg oral
Method: (§1) In this Example, an action to lower blood pressure was evaluated. That is, each of 2-ethoxy-1-[[4'- (2'-N,N-dimethylamino-ethoxycarbonyl) phenyl]methyl]-1H-benzimidazole-6-carboxylic acid morpholide (Compound No. 13) prepared in Example 6, 2-ethoxy-1-[[4'-(2"-morpholinoethoxycarbonyl)-phenyl]methyl]-1H-benzimidazole-6-carboxylic acid piperidinamide (Compound No. 57) prepared in Example 28, or the reference substance was forcibly orally administered to kidney disease model rats, and the action of lowering the blood pressure was observed. The kidney disease model rats were prepared by a ligature of branches of renal artery in accordance with a conventional method. Namely, the left hilum renalis of Sprague-Dawley female rats was exposed under anesthesia, and one of four secondary branches of the renal artery was left unligated, while the remaining three branches were ligated, respectively. After a week, the hilum renalis (artery, vein, and ureter) of the right kidney were further ligated to thereby prepare rats whose renal function was lowered to approximately 1/8 of the normal function. Each group consisted of eight rats. The drugs to be tested (20 mg/kg) were administered to each administering group, and only water was administered to a control group. Two days after the administration, the systolic blood pressure was measured by the tail cuff method using a blood pressure measuring apparatus (UR^5000; Ueda).

[2] = test system: kidney disease model rats; test: Action to kidney diseases, renal function indicatory values; format: in vivo, Sprague-Dawley female rats; details: 20 mg/kg/day, two weeks
Method: The kidney disease model rats were prepared by a ligature of branches of renal artery in accordance with a conventional method. Namely, the left hilum renalis of Sprague-Dawley female rats was exposed under anesthesia, and one of four secondary branches of the renal artery was left unligated, while the remaining three branches were ligated, respectively. After a week, the hilum renalis (artery, vein, and ureter) of the right kidney were further ligated to thereby prepare rats whose renal function was lowered to approximately 1/8 of the normal function. Each group consisted of eight rats. The drugs to be tested (20 mg/kg) were administered to each administering group, and only water was administered to a control group. Two days after the administration, the systolic blood pressure was measured by the tail cuff method using a blood pressure measuring apparatus (UR^5000; Ueda).
In this Example, an action to kidney diseases was evaluated on the basis of a renal function indicatory value.
Fifteen groups (8 rats per group) were prepared in a manner such that there was no major difference between the groups in the serum creatinine value and the blood urea nitrogen value indicating renal function. The rats in each group were allowed to freely take up food and water. […] To the rats in the control group, only water was forcibly orally administered every day. After two weeks, 0.2 ml of blood was collected from the carotid artery of the rats under anesthesia, and centrifuged to obtain serum. Using 25 μl of the serum, the serum creatinine (Scr) was measured by a creatinine analytical instrument (Beckman). Using 10 μl of the serum, the blood urea nitrogen (BUN) was measured by a BUN analytical instrument (Beckman). The creatinine clearance was evaluated as follows:
After the serum creatinine measurement, rats were placed in urinary metabolic cages for 24 hours to collect urine. A urinary creatine concentration (Ucr) was measured by a creatinine analytical instrument, and a total volume of urination (Uvol) was also measured. The creatinine clearance (CCr) was calculated by the following formula: [formula]
In the above formula, the unit of "Ucr" and "Scr" is "mg/ml" and the unit of "Uvol" is "ml".

[3] = test system: kidney disease model rats; test: Survival time of kidney diseased animals; format: in vivo, Sprague-Dawley female rats; details: 20 mg/kg/day; observation period eight weeks (upper limit); control 5.0
Method: as §1
In this Example, an action to survival time of kidney diseased animals was evaluated. As compounds to be examined, 2-ethoxy-1-[[4'-(2"-N,N-dimethylamino-ethoxycarbonyl)-phenyl]methyl]-1H-benzimidazole-6-carboxylic acid morpholide (Compound No. 13) prepared in Example 6, and 2-ethoxy-1-[[4'-(2"-morpholinoethoxycarbonyl)phenyl]methyl]-1H-benzimidazole-6-carboxylic acid piperidinamide (Compound No. 57) prepared in Example 28 were used.
The kidney disease model rats were prepared as in Example 38. Fifteen groups (8 rats per group) were prepared in a manner such that there was no major difference between the groups in the serum creatinine value and the blood urea nitrogen value indicating renal function. The rats in each group were allowed to freely take up food and water. […] To the rats in the control group, only water was forcibly orally administered every day. If kidney diseases are aggravated, the rat will die of uremia. Thus, the survival time was observed as a comprehensive indication of the improvement of the effect on the kidney diseases. The observation period was eight weeks. Thus if all rats survived, the average survival time is eight weeks, and is an upper limit.

[4] = test system: rat suffering from a kidney disease; details: J. Clinical Invest., 90: 766-771, 1992; cited from earlier work
[5] = test system: rat suffering from hyperlipemia; details: Nephron, 65: 426-432, 1993, cited from earlier work

For CCCCc1nc(Cl)c(CO)n1Cc1ccc(-c2ccccc2-c2nnn[nH]2)cc1 [DuP753, 2-butyl-4-chloro-5-(hydroxymethyl)-1-[[2'-(1H-tetrazole-5-yl)biphenyl-4-yl]methyl]imidazole, reference compound], the “action of lowering the blood pressure” value ([1]; in comparison with the control group) was “clearly exhibited the action of lowering the blood pressure”, the Blood pressure ([1]; systolic, tail cuff, average, two days after administration, control 210) was 130 mmHg and the Creatinine clearance ([2]; control 0.22) was 0.32 mL/min. The Creatinine ([2]; serum, control 2.0) was 1.6 mg/dL, the Blood urea nitrogen ([2]; serum, control 100) was 80 mg/dL and the Average survival time [3] was 6.9 weeks. The “effect in proteinuria and glomerulosclerosis” value [4] was “effective in proteinuria and glomerulosclerosis”, the “lowering of the blood pressure” value [4] was “explicit lowering of the blood pressure” and the “lowering of the blood pressure” value ([5]; higher dose) was “explicit lowering of the blood pressure”. The renal lesion ([5]; higher dose) was “more effective in the renal lesion”, the “influence on the blood pressure” value ([5]; lower dose) was “without a substantial influence on the blood pressure” and the renal lesion ([5]; lower dose) was “renal lesion is improved”.
